Assay results from the NIST ThermoML archive (doi:10.1016/j.jct.2012.09.018).

Assay: mn = molality of the nth substance listed, in mol/kg
Details: 101 kPa, Liquid, Pycnometric method

CC(C)C[C@H](NC(=O)CN)C(=O)O [glycyl-L-leucine] + O
293.15 K
Details	mass density [kg/m3]
m1 = 0.01984	999.17
m1 = 0.02628	999.49
m1 = 0.03301	999.83
m1 = 0.03973	1000.15
m1 = 0.04936	1000.61
m1 = 0.05894	1001.06
m1 = 0.06889	1001.56
m1 = 0.07838	1002.04
m1 = 0.08821	1002.51

CC(C)[C@H](NC(=O)CN)C(=O)O [glycyl-L-valine] + O
293.15 K
Details	mass density [kg/m3]
m1 = 0.01993	999.24
m1 = 0.04051	1000.32
m1 = 0.06065	1001.37
m1 = 0.08097	1002.43
m1 = 0.1005	1003.46
m1 = 0.1203	1004.51
m1 = 0.1403	1005.53
m1 = 0.1594	1006.55
m1 = 0.1799	1007.62
m1 = 0.1995	1008.64

NCC(=O)NCC(=O)O [glycylglycine] + O
293.15 K
Details	mass density [kg/m3]
m1 = 0.02014	999.33
m1 = 0.04077	1000.49
m1 = 0.06148	1001.64
m1 = 0.09135	1003.33
m1 = 0.1226	1005.06
m1 = 0.1538	1006.84
m1 = 0.1823	1008.4
m1 = 0.2128	1010.11
m1 = 0.2534	1012.46

O=C([O-])C(F)(F)C(F)(F)C(F)(F)C(F)(F)C(F)(F)C(F)(F)C(F)(F)F.[Na+] [sodium perfluorooctanoate] + O
m1 = 0.04
Details	mass density [kg/m3]
293.15 K	1007.53
298.15 K	1006.24
303.15 K	1004.73
308.15 K	1003.15
